Reference: US20200277556A1, “USE OF AN ADDITIVE TO IMPROVE THE QUALITY OF BEVERAGES BASED ON PLANT MUSTS” (OENOTROPIC INNOVATION, priority 2017, published 2020)

Test system: Wine Proteins
Assay: Effect of different cofactors on the activity of bromelain on wine, SDS PAGE
Format: biochemical
Conditions: CaCl2 as cofactor of bromelain; data not presented
Experimental: Cysteine is known to improve the activity of bromelain. […] To test the relevance of using methionine and glutathione as cofactors of a cysteine protease, the inventors compared the effect of these cofactors to the effect of cysteine on the activity of bromelain in wine. To this end, the following protocol has been implemented: • Wine: Gewurztraminer type with a pH of 3.8; • Add 10 mM of cysteine, glutathione or methionine, for 3 wine samples; • Weigh four times 8 mg of the pre-purified extract obtained from the sequence of steps 1, 2 and 4 of the above method; • Dissolve each pre-purified extract in wine, wine in the presence of cysteine, wine in the presence of glutathione and wine in the presence of methionine; • Leave in contact for 16 hours, with the plate stirring at 80 rpm and at room temperature; • Take 60 μl of the supernatant; • Add 20 μl of Laemmli 4×; • Place 50 μl on SDS PAGE gel.

[Ca+2].[Cl-].[Cl-] [CaCl2, calcium chloride]
effect on the hydrolysis of wine proteins: positive effect
